Laboratory results: PubChem BioAssay (NCI)
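Compound exposure: 48 hours, 5 concentrations, 96-well plates. At the GI50, growth is halved. TGI denotes the concentration required for complete inhibition of growth.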

Experiments:
Assay in all cases: NCI-60 cell line screen, 48 h
CAKI-1 renal = test system: CAKI-1 renal
HCC-2998 colon = test system: HCC-2998 colon
MALME-3M melanoma = test system: MALME-3M melanoma
MDA-MB-231 breast = test system: MDA-MB-231 breast
SF-295 CNS = test system: SF-295 CNS
M14 melanoma = test system: M14 melanoma
COLO 205 colon = test system: COLO 205 colon
HT29 colon = test system: HT29 colon
OVCAR-4 ovarian = test system: OVCAR-4 ovarian
IGROV1 ovarian = test system: IGROV1 ovarian
KM12 colon = test system: KM12 colon
SK-MEL-28 melanoma = test system: SK-MEL-28 melanoma
A498 renal = test system: A498 renal
SK-MEL-5 melanoma = test system: SK-MEL-5 melanoma
LOX IMVI melanoma = test system: LOX IMVI melanoma
SW-620 colon = test system: SW-620 colon
UACC-62 melanoma = test system: UACC-62 melanoma
HOP-62 NSCLC = test system: HOP-62 NSCLC
MOLT-4 leukemia = test system: MOLT-4 leukemia
T-47D breast = test system: T-47D breast
OVCAR-5 ovarian = test system: OVCAR-5 ovarian
MDA-MB-435 = test system: MDA-MB-435
SR leukemia = test system: SR leukemia
SF-539 CNS = test system: SF-539 CNS
BT-549 breast = test system: BT-549 breast
SNB-19 CNS = test system: SNB-19 CNS
SF-268 CNS = test system: SF-268 CNS
TK-10 renal = test system: TK-10 renal
CCRF-CEM leukemia = test system: CCRF-CEM leukemia
SK-OV-3 ovarian = test system: SK-OV-3 ovarian
HOP-92 NSCLC = test system: HOP-92 NSCLC
NCI-H522 lung = test system: NCI-H522 lung
OVCAR-3 ovarian = test system: OVCAR-3 ovarian
OVCAR-8 ovarian = test system: OVCAR-8 ovarian
MCF7 breast = test system: MCF7 breast
NCI-H23 lung = test system: NCI-H23 lung
PC-3 prostate = test system: PC-3 prostate
HCT-15 colon = test system: HCT-15 colon
NCI/ADR-RES ovarian = test system: NCI/ADR-RES ovarian
ACHN renal = test system: ACHN renal
NCI-H460 lung = test system: NCI-H460 lung
EKVX NSCLC = test system: EKVX NSCLC
A549 NSCLC = test system: A549 NSCLC
DU-145 prostate = test system: DU-145 prostate
SK-MEL-2 melanoma = test system: SK-MEL-2 melanoma
SN12C renal = test system: SN12C renal
UO-31 renal = test system: UO-31 renal
786-0 renal = test system: 786-0 renal
K-562 leukemia = test system: K-562 leukemia
RPMI-8226 leukemia = test system: RPMI-8226 leukemia
RXF 393 renal = test system: RXF 393 renal
HCT-116 colon = test system: HCT-116 colon
SNB-75 CNS = test system: SNB-75 CNS
HL-60(TB) leukemia = test system: HL-60(TB) leukemia
U251 CNS = test system: U251 CNS
UACC-257 melanoma = test system: UACC-257 melanoma
HS 578T breast = test system: HS 578T breast

SMILES: CN(C)c1ccc(/C=c2/c3ccccc3n3c2c2cc(F)ccc2[n+]3C)cc1
- GI50 (CAKI-1 renal): 11.6 µM
- TGI (CAKI-1 renal): 29.4 µM
- TGI (HCC-2998 colon): 11.4 µM
- GI50 (MALME-3M melanoma): 1.87 µM
- TGI (MALME-3M melanoma): 7.54 µM
- GI50 (MDA-MB-231 breast): 13.4 µM
- TGI (MDA-MB-231 breast): 34.5 µM
- GI50 (SF-295 CNS): 6.31 µM
- TGI (SF-295 CNS): 19.6 µM
- GI50 (M14 melanoma): 4.02 µM
- TGI (M14 melanoma): 22.9 µM
- GI50 (COLO 205 colon): 2.15 µM
- TGI (COLO 205 colon): 7.37 µM
- GI50 (HT29 colon): 3.49 µM
- TGI (HT29 colon): 40.8 µM
- GI50 (OVCAR-4 ovarian): 15.7 µM
- TGI (OVCAR-4 ovarian): 34.2 µM
- GI50 (IGROV1 ovarian): 5.98 µM
- TGI (IGROV1 ovarian): > 36.7 µM
- GI50 (KM12 colon): 4.28 µM
- TGI (KM12 colon): 19.4 µM
- GI50 (SK-MEL-28 melanoma): 3.55 µM
- TGI (SK-MEL-28 melanoma): 14.1 µM
- GI50 (A498 renal): 5.24 µM
- TGI (A498 renal): 17.4 µM
- GI50 (SK-MEL-5 melanoma): 2.35 µM
- TGI (SK-MEL-5 melanoma): 6.06 µM
- GI50 (LOX IMVI melanoma): 11.7 µM
- TGI (LOX IMVI melanoma): > 100 µM
- GI50 (SW-620 colon): 3.17 µM
- TGI (SW-620 colon): 15.2 µM
- TGI (UACC-62 melanoma): 6.12 µM
- GI50 (HOP-62 NSCLC): 8.6 µM
- TGI (HOP-62 NSCLC): 26.4 µM
- GI50 (MOLT-4 leukemia): 8.63 µM
- TGI (MOLT-4 leukemia): 27.5 µM
- GI50 (T-47D breast): 3.42 µM
- TGI (T-47D breast): 16.7 µM
- GI50 (OVCAR-5 ovarian): 16.2 µM
- TGI (OVCAR-5 ovarian): 31.5 µM
- GI50 (MDA-MB-435): 3.84 µM
- TGI (MDA-MB-435): 11.9 µM
- GI50 (SR leukemia): 0.0501 µM
- TGI (SR leukemia): 1.23 µM
- GI50 (SF-539 CNS): 2.59 µM
- TGI (SF-539 CNS): 7.49 µM
- GI50 (BT-549 breast): 2.65 µM
- TGI (BT-549 breast): 13.1 µM
- GI50 (SNB-19 CNS): 10.2 µM
- TGI (SNB-19 CNS): 44.3 µM
- GI50 (SF-268 CNS): 3.38 µM
- TGI (SF-268 CNS): 15.7 µM
- GI50 (TK-10 renal): 3.83 µM
- TGI (TK-10 renal): 14.7 µM
- GI50 (CCRF-CEM leukemia): 2.79 µM
- TGI (CCRF-CEM leukemia): 46.1 µM
- GI50 (SK-OV-3 ovarian): 34.1 µM
- TGI (SK-OV-3 ovarian): > 100 µM
- GI50 (HOP-92 NSCLC): 6.36 µM
- TGI (HOP-92 NSCLC): 25.3 µM
- GI50 (NCI-H522 lung): 4.57 µM
- TGI (NCI-H522 lung): > 41.1 µM
- GI50 (OVCAR-3 ovarian): 2.98 µM
- TGI (OVCAR-3 ovarian): 12.5 µM
- GI50 (OVCAR-8 ovarian): 3.83 µM
- TGI (OVCAR-8 ovarian): 16.4 µM
- GI50 (MCF7 breast): 6.57 µM
- TGI (MCF7 breast): 32.1 µM
- GI50 (NCI-H23 lung): 14.1 µM
- TGI (NCI-H23 lung): 30.9 µM
- GI50 (PC-3 prostate): 5.72 µM
- TGI (PC-3 prostate): 19.9 µM
- GI50 (HCT-15 colon): 18.8 µM
- TGI (HCT-15 colon): > 57.6 µM
- GI50 (NCI/ADR-RES ovarian): 48.4 µM
- TGI (NCI/ADR-RES ovarian): > 100 µM
- GI50 (ACHN renal): 34.6 µM
- TGI (ACHN renal): > 100 µM
- GI50 (NCI-H460 lung): 4.72 µM
- TGI (NCI-H460 lung): 26.6 µM
- GI50 (EKVX NSCLC): 4.29 µM
- TGI (EKVX NSCLC): 20.1 µM
- GI50 (A549 NSCLC): 6.04 µM
- TGI (A549 NSCLC): 27.2 µM
- GI50 (DU-145 prostate): 5.07 µM
- TGI (DU-145 prostate): 18.4 µM
- GI50 (SK-MEL-2 melanoma): 3.54 µM
- TGI (SK-MEL-2 melanoma): 11.1 µM
- TGI (SN12C renal): 2.7 µM
- GI50 (UO-31 renal): 8.21 µM
- TGI (UO-31 renal): > 34.3 µM
- GI50 (786-0 renal): 4.24 µM
- TGI (786-0 renal): 21 µM
- GI50 (K-562 leukemia): 1.48 µM
- TGI (K-562 leukemia): > 47.5 µM
- GI50 (RPMI-8226 leukemia): 0.715 µM
- TGI (RPMI-8226 leukemia): 3.55 µM
- GI50 (RXF 393 renal): 5.91 µM
- TGI (RXF 393 renal): 21.8 µM
- GI50 (HCT-116 colon): 4.78 µM
- TGI (HCT-116 colon): > 100 µM
- GI50 (SNB-75 CNS): 8.07 µM
- TGI (SNB-75 CNS): 20.3 µM
- GI50 (HL-60(TB) leukemia): 0.954 µM
- TGI (HL-60(TB) leukemia): > 100 µM
- GI50 (U251 CNS): 0.905 µM
- GI50 (UACC-257 melanoma): 4.31 µM
- TGI (UACC-257 melanoma): 11.8 µM
- GI50 (HS 578T breast): 3.99 µM
- TGI (HS 578T breast): 25.4 µM
